Pest or weed control and plant injury data for two molecules are collected here from patent US12077503B2, “Substituted cyclic amides and their use as herbicides” (FMC CORPORATION, priority 2015, dated 2024).

Common to all, as to assay type: in vivo
Assay [1] concerns Kochia (Kochia scoparia). The assay can be described thus: Test A preemergence. The note with it: Bassia scoparia, pre-emergence, 240 h; for pest or weed control at 125 g/ha: 125 g ai/ha, preemergence, 0 to 100 scale where 0 is no effect and 100 is complete control, read-out: Kochia plant response rating; for pest or weed control at 500 g/ha: 500 g ai/ha, Preemergence, visual injury vs untreated controls after approximately 10 d, read-out: Kochia plant response rating (0 to 100 scale where 0 is no effect and 100 is complete control). A digest of the protocol: (§1)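 In a loam soil and sand blend, planted seeds got a preemergence directed soil spray, and young plants at the one- to two-leaf stage, 2–10 cm high, got a postemergence application; ~10 d greenhouse hold; injury rated visually, 0 = none, 100 = complete control.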

Assay [2] deals with barnyardgrass (Echinochloa crus-galli). Briefly: Test A preemergence. The note with it: Echinochloa crus-galli, pre-emergence, 240 h; for pest or weed control at 125 g/ha: 125 g ai/ha, preemergence, 0 to 100 scale where 0 is no effect and 100 is complete control, read-out: Barnyardgrass plant response rating; for pest or weed control at 500 g/ha: 500 g ai/ha, Preemergence, visual injury vs untreated controls after approximately 10 d, read-out: Barnyardgrass plant response rating (0 to 100 scale where 0 is no effect and 100 is complete control). A digest of the protocol: as §1

Assay [3] concerns giant foxtail (Setaria faberii). Briefly: Test A preemergence. The settings on record: Setaria faberi, pre-emergence, 240 h; for pest or weed control at 125 g/ha: 125 g ai/ha, preemergence, 0 to 100 scale where 0 is no effect and 100 is complete control, read-out: Foxtail, Giant plant response rating; for pest or weed control at 500 g/ha: 500 g ai/ha, Preemergence, visual injury vs untreated controls after approximately 10 d, read-out: Foxtail, Giant plant response rating (0 to 100 scale where 0 is no effect and 100 is complete control). A digest of the protocol:
as §1

Assay [4] concerns pigweed (Amaranthus retroflexus). The assay can be described thus: Test A preemergence. The settings on record: Amaranthus retroflexus, pre-emergence, 240 h; for pest or weed control at 125 g/ha: 125 g ai/ha, preemergence, 0 to 100 scale where 0 is no effect and 100 is complete control, read-out: Pigweed plant response rating; for pest or weed control at 500 g/ha: 500 g ai/ha, Preemergence, visual injury vs untreated controls after approximately 10 d, read-out: Pigweed plant response rating (0 to 100 scale where 0 is no effect and 100 is complete control).

For assay [5], the system named is ragweed (common ragweed, Ambrosia elatior). The assay can be described thus: Test A preemergence. The note with it: Ambrosia artemisiifolia, pre-emergence, 240 h; for pest or weed control at 125 g/ha: 125 g ai/ha, preemergence, 0 to 100 scale where 0 is no effect and 100 is complete control, read-out: Ragweed plant response rating; for pest or weed control at 500 g/ha: 500 g ai/ha, Preemergence, visual injury vs untreated controls after approximately 10 d, read-out: Ragweed plant response rating (0 to 100 scale where 0 is no effect and 100 is complete control). A digest of the protocol:
as §1

The test system of assay [6] is ryegrass, Italian (Italian ryegrass, Lolium multiflorum). The assay can be described thus: Test A preemergence. The note with it: Lolium multiflorum, pre-emergence, 240 h; for pest or weed control at 125 g/ha: 125 g ai/ha, preemergence, 0 to 100 scale where 0 is no effect and 100 is complete control, read-out: Ryegrass, Italian plant response rating; for pest or weed control at 500 g/ha: 500 g ai/ha, Preemergence, visual injury vs untreated controls after approximately 10 d, read-out: Ryegrass, Italian plant response rating (0 to 100 scale where 0 is no effect and 100 is complete control). An outline of the steps:
as §1

For assay [7], the system named is Galium (catchweed bedstraw, Galium aparine). The assay can be described thus: Test A postemergence. The settings on record: Galium, post-emergence, 240 h, 125 g ai/ha, postemergence, visual injury rating after approximately 10 d; read-out: Galium plant response rating (0 to 100 scale, 0 no effect, 100 complete control). A digest of the protocol:
as §1

In assay [8] the test system is Kochia (Kochia scoparia). The assay can be described thus: Test A postemergence. The settings on record: Bassia scoparia, post-emergence, 240 h, 125 g ai/ha, postemergence, visual injury rating after approximately 10 d; read-out: Kochia plant response rating (0 to 100 scale, 0 no effect, 100 complete control). A digest of the protocol: as §1
For assay [9], the system named is barnyardgrass (Echinochloa crus-galli). The assay can be described thus: Test A postemergence. The settings on record: Echinochloa crus-galli, post-emergence, 240 h, 125 g ai/ha, postemergence, visual injury rating after approximately 10 d; read-out: Barnyardgrass plant response rating (0 to 100 scale, 0 no effect, 100 complete control). A digest of the protocol: as §1

Another assay concerns corn (Zea mays). The assay can be described thus: Test A postemergence. The settings on record: Zea mays, post-emergence, 240 h, 125 g ai/ha, postemergence, visual injury rating after approximately 10 d; read-out: Corn plant response rating (0 to 100 scale, 0 no effect, 100 complete control). An outline of the steps:
as §1

The test system of assay [10] is giant foxtail (Setaria faberii). Briefly: Test A postemergence. The settings on record: Setaria faberi, post-emergence, 240 h, 125 g ai/ha, postemergence, visual injury rating after approximately 10 d; read-out: Foxtail, Giant plant response rating (0 to 100 scale, 0 no effect, 100 complete control). An outline of the steps: as §1
The test system of assay [11] is pigweed (Amaranthus retroflexus). The assay can be described thus: Test A postemergence. The note with it: Amaranthus retroflexus, post-emergence, 240 h, 125 g ai/ha, postemergence, visual injury rating after approximately 10 d; read-out: Pigweed plant response rating (0 to 100 scale, 0 no effect, 100 complete control). An outline of the steps: as §1
Assay [12] has as its system ragweed (common ragweed, Ambrosia elatior). The assay can be described thus: Test A postemergence. The settings on record: Ambrosia artemisiifolia, post-emergence, 240 h, 125 g ai/ha, postemergence, visual injury rating after approximately 10 d; read-out: Ragweed plant response rating (0 to 100 scale, 0 no effect, 100 complete control). An outline of the steps: as §1
Assay [13] concerns ryegrass, Italian (Italian ryegrass, Lolium multiflorum). The assay can be described thus: Test A postemergence. The note with it: Lolium multiflorum, post-emergence, 240 h, 125 g ai/ha, postemergence, visual injury rating after approximately 10 d; read-out: Ryegrass, Italian plant response rating (0 to 100 scale, 0 no effect, 100 complete control). A digest of the protocol:
as §1

In assay [14] the test system is wheat (Triticum aestivum). The assay can be described thus: Test A postemergence. The note with it: Triticum aestivum, post-emergence, 240 h, 125 g ai/ha, postemergence, visual injury rating after approximately 10 d; read-out: Wheat plant response rating (0 to 100 scale, 0 no effect, 100 complete control). A digest of the protocol: as §1

Consider `O=C1NC[C@H](c2cc(F)c(C(F)(F)F)c(F)c2)[C@H]1C(=O)Nc1ccc(F)cc1F` [Compound 840], for which the pest or weed control at 125 g/ha in the assay with Kochia (Kochia scoparia) [1] was determined as 0%; in assay [2], 80%; in assay [3], 90%; in [4] it was 30%; in assay [5], 0%; in assay [6], 0%. In addition, the pest or weed control at 125 g/ha came out at 50% in assay [7]; 0% in the assay with Kochia (Kochia scoparia) [8]; 80% in assay [9]; 90% in assay [10]; 0% in assay [11]; 0% in [12]. Moreover, the pest or weed control at 125 g/ha in assay [13] was determined as 0%. For the same molecule, the pest or weed control at 500 g/ha was found to be 70% in the assay on Kochia (Kochia scoparia) [1]; 90% in [2]; 90% in assay [3]; 60% in assay [4]; 0% in assay [5]; 20% in [6]. The plant injury at 125 g/ha in the assay on corn (Zea mays) is 30%; in assay [14] it was 20%.

As for `CCOc1ccc([C@H]2CNC(=O)[C@@H]2C(=O)Nc2ccccc2F)cc1` [Compound 906], the pest or weed control at 125 g/ha (with Kochia (Kochia scoparia) [1]; in assay [2]; in [3]; in assay [4]; in [5]; in [6]) was 0% each time. Besides, the pest or weed control at 125 g/ha (in [7]; in the assay on Kochia (Kochia scoparia) [8]; in [9]; in assay [10]; in assay [11]; in [12]) was 0% each time. The pest or weed control at 125 g/ha in assay [13] worked out at 0%. For the same molecule, the pest or weed control at 500 g/ha (with Kochia (Kochia scoparia) [1]; in assay [2]; in assay [3]; in [4]; in [5]; in assay [6]) was 0% in each case. The plant injury at 125 g/ha (with corn (Zea mays); in assay [14]) was 0% in each case.
